Test results as given in ChEMBL document CHEMBL1201861, “Genomics of Drug Sensitity in Cancer screening data, Wellcome Trust Sanger Institute”.

What was measured:
Test in all cases: cells
[1] = test system: KNS-81-FD; format: functional, cell-based; details: Homo sapiens;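 further: growth inhibition of KNS-81-FD cells, read out with a cell viability assay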
Description: SANGER: Inhibition of human KNS-81-FD cell growth in a cell viability assay.

[2] = test system: SK-N-DZ; format: functional, cell-based; details: Homo sapiens;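 further: growth inhibition of the cancer cell line, read out through a viability assay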
Description: SANGER: Inhibition of human SK-N-DZ cell growth in a cell viability assay.

[3] = test system: EW-13; format: functional, cell-based; details: Homo sapiens;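 further: growth inhibition of EW-13 cells, read out with a cell viability assay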
Description: SANGER: Inhibition of human EW-13 cell growth in a cell viability assay.

[4] = test system: JVM-3; format: functional, cell-based; details: Homo sapiens;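 further: growth inhibition of human JVM-3 cells, read out with a cell viability assay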
Description: SANGER: Inhibition of human JVM-3 cell growth in a cell viability assay.

[5] = test system: NCI-H1838; format: functional, cell-based; details: Homo sapiens;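 further: growth inhibition of NCI-H1838 cells, determined with a cell viability readout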
Description: SANGER: Inhibition of human NCI-H1838 cell growth in a cell viability assay.

[6] = test system: SK-MEL-1; format: functional, cell-based; details: Homo sapiens;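 further: growth inhibition of human SK-MEL-1 cells, read out by a cell viability assay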
Description: SANGER: Inhibition of human SK-MEL-1 cell growth in a cell viability assay.

[7] = test system: LB1047-RCC; format: functional, cell-based; details: Homo sapiens;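 further: inhibition of cell growth, determined with a cell viability assay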
Description: SANGER: Inhibition of human LB1047-RCC cell growth in a cell viability assay.

[8] = test system: MDA-MB-134-VI; format: functional, cell-based; details: Homo sapiens
Description: SANGER: Inhibition of human MDA-MB-134-VI cell growth in a cell viability assay.

[9] = test system: HOP-62; format: functional, cell-based; details: Homo sapiens;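 further: cell growth inhibition determined with a viability assay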
Description: SANGER: Inhibition of human HOP-62 cell growth in a cell viability assay.

[10] = test system: NCI-H1395; format: functional, cell-based; details: Homo sapiens;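 further: cell viability assay read-out quantifying reduced proliferation of human NCI-H1395 cells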
Description: SANGER: Inhibition of human NCI-H1395 cell growth in a cell viability assay.

[11] = test system: NCI-H1563; format: functional, cell-based; details: Homo sapiens;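 further: growth inhibition of human NCI-H1563 cells, read out with a cell viability assay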
Description: SANGER: Inhibition of human NCI-H1563 cell growth in a cell viability assay.

[12] = test system: TGBC24TKB; format: functional, cell-based; details: Homo sapiens;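 further: growth inhibition of human TGBC24TKB cells, read out with a cell viability assay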
Description: SANGER: Inhibition of human TGBC24TKB cell growth in a cell viability assay.

[13] = test system: JVM-2; format: functional, cell-based; details: Homo sapiens;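 further: growth inhibition of JVM-2 cells determined by a cell viability assay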
Description: SANGER: Inhibition of human JVM-2 cell growth in a cell viability assay.

[14] = test system: NCI-H1693; format: functional, cell-based; details: Homo sapiens;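 further: growth inhibition of the human cell line, read out with a cell viability assay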
Description: SANGER: Inhibition of human NCI-H1693 cell growth in a cell viability assay.

[15] = test system: ES6; format: functional, cell-based; details: Homo sapiens;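 further: growth inhibition of human ES6 cells, read out with a cell viability assay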
Description: SANGER: Inhibition of human ES6 cell growth in a cell viability assay.

[16] = test system: OMC-1; format: functional, cell-based; details: Homo sapiens;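 further: growth inhibition of the OMC-1 cell line, measured by a cell viability assay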
Description: SANGER: Inhibition of human OMC-1 cell growth in a cell viability assay.

[17] = test system: SCH; format: functional, cell-based; details: Homo sapiens;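 further: growth inhibition of human SCH cells, read out in a cell viability assay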
Description: SANGER: Inhibition of human SCH cell growth in a cell viability assay.

[18] = test system: ES4; format: functional, cell-based; details: Homo sapiens;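 further: growth inhibition of human ES4 cells, read out by a cell viability assay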
Description: SANGER: Inhibition of human ES4 cell growth in a cell viability assay.

[19] = test system: MC-CAR; format: functional, cell-based; details: Homo sapiens;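 further: growth inhibition of the human MC-CAR cell line, read out by a cell viability assay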
Description: SANGER: Inhibition of human MC-CAR cell growth in a cell viability assay.

[20] = test system: KM-H2; format: functional, cell-based; details: Homo sapiens;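 further: growth inhibition of KM-H2 cells, read out by a cell viability assay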
Description: SANGER: Inhibition of human KM-H2 cell growth in a cell viability assay.

[21] = test system: KARPAS-45; format: functional, cell-based; details: Homo sapiens;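 further: inhibition of cell line growth, read out through a viability assay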
Description: SANGER: Inhibition of human KARPAS-45 cell growth in a cell viability assay.

[22] = test system: TE-8; format: functional, cell-based; details: Homo sapiens;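 further: growth inhibition of TE-8 cells, measured with a cell viability readout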
Description: SANGER: Inhibition of human TE-8 cell growth in a cell viability assay.

[23] = test system: NB69; format: functional, cell-based; details: Homo sapiens;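 further: growth inhibition of NB69 cells, determined by a cell viability assay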
Description: SANGER: Inhibition of human NB69 cell growth in a cell viability assay.

[24] = test system: HAL-01; format: functional, cell-based; details: Homo sapiens;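 further: growth inhibition of human HAL-01 cells, read out with a cell viability assay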
Description: SANGER: Inhibition of human HAL-01 cell growth in a cell viability assay.

[25] = test system: ATN-1; format: functional, cell-based; details: Homo sapiens;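 further: growth inhibition of human ATN-1 cells, read out with a cell viability assay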
Description: SANGER: Inhibition of human ATN-1 cell growth in a cell viability assay.

[26] = test system: NCI-H2196; format: functional, cell-based; details: Homo sapiens;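 further: cell viability assay used as the readout of growth inhibition in NCI-H2196 cells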
Description: SANGER: Inhibition of human NCI-H2196 cell growth in a cell viability assay.

[27] = test system: TGBC1TKB; format: functional, cell-based; details: Homo sapiens;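 further: growth inhibition of TGBC1TKB cells, read out by a cell viability assay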
Description: SANGER: Inhibition of human TGBC1TKB cell growth in a cell viability assay.

[28] = test system: RPMI-8866; format: functional, cell-based; details: Homo sapiens
Description: SANGER: Inhibition of human RPMI-8866 cell growth in a cell viability assay.

[29] = test system: MHH-PREB-1; format: functional, cell-based; details: Homo sapiens;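 further: cell viability assay measuring inhibition of proliferation of human MHH-PREB-1 cells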
Description: SANGER: Inhibition of human MHH-PREB-1 cell growth in a cell viability assay.

[30] = test system: CAL-12T; format: functional, cell-based, Homo sapiens; details: Homo sapiens, CAL-12T;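 further: growth inhibition of human CAL-12T cells, read out with a cell viability assay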
Description: SANGER: Inhibition of human CAL-12T cell growth in a cell viability assay.

[31] = test system: SK-NEP-1; format: functional, cell-based; details: Homo sapiens;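 further: growth inhibition of human SK-NEP-1 cells, read out by a cell viability assay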
Description: SANGER: Inhibition of human SK-NEP-1 cell growth in a cell viability assay.

[32] = test system: SK-LMS-1; format: functional, cell-based; details: Homo sapiens;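 further: growth inhibition of human SK-LMS-1 cells, read out with a cell viability assay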
Description: SANGER: Inhibition of human SK-LMS-1 cell growth in a cell viability assay.

[33] = test system: BB65-RCC; format: functional, cell-based; details: Homo sapiens;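 further: growth inhibition of the cell line, measured with a cell viability assay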
Description: SANGER: Inhibition of human BB65-RCC cell growth in a cell viability assay.

[34] = test system: KARPAS-299; format: functional, cell-based; details: Homo sapiens
Description: SANGER: Inhibition of human KARPAS-299 cell growth in a cell viability assay.

[35] = test system: NCI-H1650; format: functional, cell-based; details: Homo sapiens;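 further: growth inhibition of human NCI-H1650 cells measured by a cell viability assay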
Description: SANGER: Inhibition of human NCI-H1650 cell growth in a cell viability assay.

[36] = test system: EKVX; format: functional, cell-based; details: Homo sapiens;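 further: growth inhibition of human EKVX cells, read out with a cell viability assay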
Description: SANGER: Inhibition of human EKVX cell growth in a cell viability assay.

[37] = test system: DJM-1; format: functional, cell-based; details: Homo sapiens;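 further: growth inhibition of human DJM-1 cells, read out by a cell viability assay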
Description: SANGER: Inhibition of human DJM-1 cell growth in a cell viability assay.

[38] = test system: HOS; format: functional, cell-based; details: Homo sapiens;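 further: growth inhibition of human HOS cells, read out with a cell viability assay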
Description: SANGER: Inhibition of human HOS cell growth in a cell viability assay.

[39] = test system: ES5; format: functional, cell-based; details: Homo sapiens;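 further: growth inhibition of human ES5 cells, read out by a cell viability assay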
Description: SANGER: Inhibition of human ES5 cell growth in a cell viability assay.

[40] = test system: HDLM-2; format: functional, cell-based; details: Homo sapiens;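 further: cell viability assay measuring suppression of HDLM-2 proliferation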
Description: SANGER: Inhibition of human HDLM-2 cell growth in a cell viability assay.

[41] = test system: A498; format: functional, cell-based; details: Homo sapiens;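 further: growth inhibition of human A498 cells, read out with a cell viability assay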
Description: SANGER: Inhibition of human A498 cell growth in a cell viability assay.

[42] = test system: 697; format: functional, cell-based; details: Homo sapiens
Description: SANGER: Inhibition of human 697 cell growth in a cell viability assay.

[43] = test system: SF-539; format: functional, cell-based; details: Homo sapiens;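 further: Read-out is a cell viability assay, with IC50 reflecting inhibition of cell growth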
Description: SANGER: Inhibition of human SF539 cell growth in a cell viability assay.

[44] = test system: Ramos-2G6-4C10; format: functional, cell-based; details: Homo sapiens;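 further: growth inhibition of the cell line, measured by a cell viability read-out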
Description: SANGER: Inhibition of human Ramos-2G6-4C10 cell growth in a cell viability assay.

[45] = test system: NCI-H1581; format: functional, cell-based; details: Homo sapiens;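 further: cell growth inhibition read out by a viability assay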
Description: SANGER: Inhibition of human NCI-H1581 cell growth in a cell viability assay.

[46] = test system: MMAC-SF; format: functional, cell-based; details: Homo sapiens;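 further: growth inhibition of human MMAC-SF cells, read out with a cell viability assay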
Description: SANGER: Inhibition of human MMAC-SF cell growth in a cell viability assay.

[47] = test system: LB2518-MEL; format: functional, cell-based; details: Homo sapiens;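 further: growth inhibition of human LB2518-MEL cells, measured with a cell viability assay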
Description: SANGER: Inhibition of human LB2518-MEL cell growth in a cell viability assay.

[48] = test system: Becker; format: functional, cell-based; details: Homo sapiens;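 further: growth inhibition of Becker cells, read out with a cell viability assay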
Description: SANGER: Inhibition of human Becker cell growth in a cell viability assay.

[49] = test system: MOLT-16; format: functional, cell-based; details: Homo sapiens;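 further: growth inhibition of human MOLT-16 cells, read out with a cell viability assay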
Description: SANGER: Inhibition of human MOLT-16 cell growth in a cell viability assay.

[50] = test system: HCC2218; format: functional, cell-based; details: Homo sapiens;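 further: cell viability assay read-out, with IC50 given as the concentration that inhibits growth of the cell line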
Description: SANGER: Inhibition of human HCC2218 cell growth in a cell viability assay.

[51] = test system: A4-Fuk; format: functional, cell-based; details: Homo sapiens;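 further: growth inhibition of A4-Fuk cells, read out by a cell viability assay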
Description: SANGER: Inhibition of human A4-Fuk cell growth in a cell viability assay.

[52] = test system: SCC-3; format: functional, cell-based; details: Homo sapiens
Description: SANGER: Inhibition of human SCC-3 cell growth in a cell viability assay.

[53] = test system: KG-1; format: functional, cell-based; details: Homo sapiens
Description: SANGER: Inhibition of human KG-1 cell growth in a cell viability assay.

[54] = test system: RCC10RGB; format: functional, cell-based; details: Homo sapiens
Description: SANGER: Inhibition of human RCC10RGB cell growth in a cell viability assay.

[55] = test system: SW-620; format: functional, cell-based; details: Homo sapiens
Description: SANGER: Inhibition of human SW620 cell growth in a cell viability assay.

[56] = test system: D-502MG; format: functional, cell-based; details: Homo sapiens
Description: SANGER: Inhibition of human D-502MG cell growth in a cell viability assay.

[57] = test system: RPMI-8226; format: functional, cell-based; details: Homo sapiens
Description: SANGER: Inhibition of human RPMI-8226 cell growth in a cell viability assay.

[58] = test system: HCC1187; format: functional, cell-based; details: Homo sapiens
Description: SANGER: Inhibition of human HCC1187 cell growth in a cell viability assay.

[59] = test system: MeWo; format: functional, cell-based; details: Homo sapiens
Description: SANGER: Inhibition of human Mewo cell growth in a cell viability assay.

[60] = test system: NB13; format: functional, cell-based; details: Homo sapiens
Description: SANGER: Inhibition of human NB13 cell growth in a cell viability assay.

[61] = test system: SK-UT-1; format: functional, cell-based; details: Homo sapiens
Description: SANGER: Inhibition of human SK-UT-1 cell growth in a cell viability assay.

[62] = test system: GI-1; format: functional, cell-based; details: Homo sapiens
Description: SANGER: Inhibition of human GI-1 cell growth in a cell viability assay.

[63] = test system: NCI-H1304; format: functional, cell-based; details: Homo sapiens
Description: SANGER: Inhibition of human NCI-H1304 cell growth in a cell viability assay.

[64] = test system: LC-1F; format: functional, cell-based; details: Homo sapiens
Description: SANGER: Inhibition of human LC-1F cell growth in a cell viability assay.

[65] = test system: BV-173; format: functional, cell-based; details: Homo sapiens
Description: SANGER: Inhibition of human BV-173 cell growth in a cell viability assay.

Question: Which results are given for `Fc1cc(-c2cc[nH]/c(=N/c3ccc(-n4cnc(N5CCOCC5)n4)cc3)n2)cc(N2CCOCC2)c1`?
Answer: IC50 [1]: 4950 nM; IC50 [2]: 1860 nM; IC50 [3]: 297 nM; IC50 [4]: > 5120 nM; IC50 [5]: > 5120 nM; IC50 [6]: 1330 nM; IC50 [7]: 402 nM; IC50 [8]: 4680 nM; IC50 [9]: 248 nM; IC50 [10]: > 5120 nM; IC50 [11]: 320 nM; IC50 [12]: 1040 nM; IC50 [13]: 3300 nM; IC50 [14]: > 5120 nM; IC50 [15]: 406 nM; IC50 [16]: 3970 nM; IC50 [17]: 3250 nM; IC50 [18]: 1390 nM; IC50 [19]: 380 nM; IC50 [20]: 1360 nM; IC50 [21]: 795 nM; IC50 [22]: 831 nM; IC50 [23]: 1430 nM; IC50 [24]: 704 nM; IC50 [25]: 505 nM; IC50 [26]: 786 nM; IC50 [27]: 1880 nM; IC50 [28]: 1180 nM; IC50 [29]: 430 nM; IC50 [30]: 2110 nM; IC50 [31]: 550 nM; IC50 [32]: 453 nM; IC50 [33]: 924 nM; IC50 [34]: 380 nM; IC50 [35]: 624 nM; IC50 [36]: 2840 nM; IC50 [37]: > 5120 nM; IC50 [38]: 613 nM; IC50 [39]: > 5120 nM; IC50 [40]: 721 nM; IC50 [41]: 171 nM; IC50 [42]: 373 nM; IC50 [43]: 673 nM; IC50 [44]: 393 nM; IC50 [45]: 1340 nM; IC50 [46]: 2480 nM; IC50 [47]: 540 nM; IC50 [48]: 1060 nM; IC50 [49]: 733 nM; IC50 [50]: 1090 nM; IC50 [51]: 972 nM; IC50 [52]: 582 nM; IC50 [53]: 482 nM; IC50 [54]: 889 nM; IC50 [55]: 355 nM; IC50 [56]: 1050 nM; IC50 [57]: 1030 nM; IC50 [58]: 594 nM; IC50 [59]: 199 nM; IC50 [60]: 4910 nM; IC50 [61]: 61.6 nM; IC50 [62]: 171 nM; IC50 [63]: 1430 nM; IC50 [64]: 2530 nM; IC50 [65]: 736 nM

Question: For `Cc1nc(Nc2ncc(C(=O)Nc3c(C)cccc3Cl)s2)cc(N2CCN(CCO)CC2)n1` [DASATINIB], which IC50 [1] is on record?
Answer: > 1280 nM

Question: What about the IC50 [2] of the same molecule?
Answer: > 1280 nM

Question: And the IC50 [3]?
Answer: > 1280 nM

Question: And the IC50 [4]?
Answer: > 1280 nM

Question: What about the IC50 [5] of the same molecule?
Answer: > 1280 nM

Question: And the IC50 [6]?
Answer: > 1280 nM

Question: What about the IC50 [7] of the same molecule?
Answer: 9.89 nM

Question: And the IC50 [8]?
Answer: > 1280 nM

Question: What about the IC50 [9] of the same molecule?
Answer: 18.3 nM

Question: And the IC50 [10]?
Answer: > 1280 nM

Question: What about the IC50 [12] of the same molecule?
Answer: 47.6 nM

Question: And the IC50 [13]?
Answer: > 1280 nM

Question: And the IC50 [15]?
Answer: 31.9 nM

Question: What about the IC50 [16] of the same molecule?
Answer: > 1280 nM

Question: And the IC50 [17]?
Answer: > 1280 nM

Question: What about the IC50 [18] of the same molecule?
Answer: 1050 nM

Question: And the IC50 [19]?
Answer: > 1280 nM

Question: What about the IC50 [20] of the same molecule?
Answer: > 1280 nM

Question: And the IC50 [21]?
Answer: > 1280 nM

Question: And the IC50 [22]?
Answer: 15.8 nM

Question: What about the IC50 [23] of the same molecule?
Answer: 144 nM

Question: What about the IC50 [24] of the same molecule?
Answer: > 1280 nM

Question: What about the IC50 [25] of the same molecule?
Answer: > 1280 nM

Question: What about the IC50 [26] of the same molecule?
Answer: > 1280 nM

Question: What about the IC50 [27] of the same molecule?
Answer: 61.6 nM

Question: What about the IC50 [28] of the same molecule?
Answer: > 1280 nM

Question: And the IC50 [29]?
Answer: 745 nM

Question: What about the IC50 [31] of the same molecule?
Answer: > 1280 nM

Question: And the IC50 [32]?
Answer: > 1280 nM

Question: What about the IC50 [33] of the same molecule?
Answer: 82.3 nM

Question: What about the IC50 [34] of the same molecule?
Answer: > 1280 nM

Question: What about the IC50 [35] of the same molecule?
Answer: > 1280 nM

Question: And the IC50 [36]?
Answer: > 1280 nM

Question: What about the IC50 [37] of the same molecule?
Answer: > 1280 nM

Question: What about the IC50 [39] of the same molecule?
Answer: > 1280 nM

Question: And the IC50 [40]?
Answer: > 1280 nM

Question: What about the IC50 [41] of the same molecule?
Answer: 72.8 nM

Question: And the IC50 [42]?
Answer: 200 nM

Question: And the IC50 [43]?
Answer: > 1280 nM

Question: And the IC50 [44]?
Answer: > 1280 nM

Question: And the IC50 [45]?
Answer: > 1280 nM

Question: What about the IC50 [46] of the same molecule?
Answer: > 1280 nM

Question: And the IC50 [47]?
Answer: 142 nM

Question: And the IC50 [48]?
Answer: 30 nM

Question: And the IC50 [49]?
Answer: > 1280 nM

Question: And the IC50 [50]?
Answer: > 1280 nM

Question: What about the IC50 [51] of the same molecule?
Answer: > 1280 nM

Question: What about the IC50 [52] of the same molecule?
Answer: > 1280 nM

Question: And the IC50 [53]?
Answer: > 1280 nM

Question: And the IC50 [54]?
Answer: 491 nM

Question: And the IC50 [56]?
Answer: 1230 nM

Question: What about the IC50 [57] of the same molecule?
Answer: > 1280 nM

Question: What about the IC50 [58] of the same molecule?
Answer: > 1280 nM

Question: What about the IC50 [60] of the same molecule?
Answer: > 1280 nM

Question: And the IC50 [61]?
Answer: > 1280 nM

Question: What about the IC50 [62] of the same molecule?
Answer: > 1280 nM

Question: What about the IC50 [63] of the same molecule?
Answer: > 1280 nM

Question: What about the IC50 [64] of the same molecule?
Answer: > 1280 nM

Question: And the IC50 [65]?
Answer: < 5 nM
